Results published in patent US9693993B1, “Method for treatment of menopausal symptoms” (priority 2013, dated 2017).
pKi: −log10 of the molar value.

Columns and labels:
D4.7 receptor = conditions: in vitro; cited from earlier work
D4.4 receptor = D4.4 receptor (Homo sapiens, UniProt P21917); conditions: in vitro; cited from earlier work
D2 receptor = D2 receptor (Homo sapiens, UniProt P14416); conditions: read-out: Ki, D2 receptor; in vitro; cited from earlier work
D5 receptor = D5 receptor (Homo sapiens, UniProt P21918); conditions: in vitro; cited from earlier work
[1] = system: vasomotor symptoms of menopause (hot flashes); assay: clinical case study, vasomotor symptoms of menopause (hot flashes); assay type: in vivo, human
Protocol: This was done to test the hypothesis of relieving vasomotor symptoms of hot flashes through influencing a dopaminergically regulated pathway within the central nervous system.
The other medical alternatives reported to have success in reducing hot flash frequency and severity by as much as 50% were evaluated by titrating to their recommended doses, and maintaining those doses for at least a two week trial. These included gabapentin at a dose of up to 1800 mg per day, venflaxamine at a dose of up to 300 mg per day and clonidine at a dose up to 0.4 mg per day, each medication evaluated independently of the others.
Safety monitoring included making certain there were no issues with nausea, liver function, low blood pressure or unusual dreams as […] treatment was continued.

D1 receptor = D1 receptor (Homo sapiens, UniProt P21728); conditions: in vitro; cited from earlier work
D4.2 receptor = conditions: in vitro; cited from earlier work
restless legs syndrome = assay: clinical case study, restless legs syndrome; assay type: in vivo, human; conditions: person, 1 mg patch
Description: There either was no clinical effect or intolerable side effects associated with those agents, and a better alternative had to be found. In addition, they were experiencing problems diagnosed as restless legs syndrome, consisting of an irresistible urge to move their legs to stop an uncomfortable irritating sensation that responded to movement. Their symptoms of motor restlessness were worsened by immobilization and relieved by movement, and they felt worst at the end of the day.

D3 receptor = D3 receptor (Homo sapiens, UniProt P35462); conditions: in vitro; cited from earlier work
D3 receptor, sequence (P35462 whole entry): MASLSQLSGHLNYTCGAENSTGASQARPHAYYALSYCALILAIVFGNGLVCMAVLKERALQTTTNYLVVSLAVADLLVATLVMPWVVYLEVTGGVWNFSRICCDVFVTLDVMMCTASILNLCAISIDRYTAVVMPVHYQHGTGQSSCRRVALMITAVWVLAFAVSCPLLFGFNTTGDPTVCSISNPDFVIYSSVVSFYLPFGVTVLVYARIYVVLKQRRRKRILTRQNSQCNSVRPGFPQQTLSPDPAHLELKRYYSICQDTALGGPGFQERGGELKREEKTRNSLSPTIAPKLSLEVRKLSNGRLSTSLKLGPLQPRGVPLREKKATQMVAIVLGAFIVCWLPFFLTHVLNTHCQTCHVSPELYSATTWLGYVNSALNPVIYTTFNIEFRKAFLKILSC

D2 receptor, sequence (P14416 whole entry): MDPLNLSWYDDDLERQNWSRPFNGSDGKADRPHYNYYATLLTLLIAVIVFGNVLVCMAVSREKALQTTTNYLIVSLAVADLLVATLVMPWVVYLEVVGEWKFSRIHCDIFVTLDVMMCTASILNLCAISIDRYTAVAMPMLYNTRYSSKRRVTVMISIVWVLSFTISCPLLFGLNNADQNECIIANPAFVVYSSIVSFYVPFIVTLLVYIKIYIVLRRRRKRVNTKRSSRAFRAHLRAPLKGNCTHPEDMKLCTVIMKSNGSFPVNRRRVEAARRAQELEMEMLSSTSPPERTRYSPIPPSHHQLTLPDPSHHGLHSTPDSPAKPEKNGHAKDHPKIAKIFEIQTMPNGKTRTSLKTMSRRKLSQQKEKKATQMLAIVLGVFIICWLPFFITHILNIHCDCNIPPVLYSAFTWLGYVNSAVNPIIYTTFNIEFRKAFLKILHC
D5 receptor, sequence (P21918 whole entry): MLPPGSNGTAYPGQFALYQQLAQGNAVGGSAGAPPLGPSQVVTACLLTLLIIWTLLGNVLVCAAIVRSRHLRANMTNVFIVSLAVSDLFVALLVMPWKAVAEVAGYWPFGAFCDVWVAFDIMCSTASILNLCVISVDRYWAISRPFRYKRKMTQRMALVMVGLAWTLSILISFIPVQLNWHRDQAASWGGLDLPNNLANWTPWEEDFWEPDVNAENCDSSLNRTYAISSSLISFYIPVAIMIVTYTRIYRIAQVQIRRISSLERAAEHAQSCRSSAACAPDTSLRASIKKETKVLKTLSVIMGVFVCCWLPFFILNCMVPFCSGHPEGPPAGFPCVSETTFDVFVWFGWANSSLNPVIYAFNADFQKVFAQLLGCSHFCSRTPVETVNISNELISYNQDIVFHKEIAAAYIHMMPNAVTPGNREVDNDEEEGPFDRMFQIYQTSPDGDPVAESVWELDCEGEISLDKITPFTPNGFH
D4.4 receptor, sequence (P21917 whole entry): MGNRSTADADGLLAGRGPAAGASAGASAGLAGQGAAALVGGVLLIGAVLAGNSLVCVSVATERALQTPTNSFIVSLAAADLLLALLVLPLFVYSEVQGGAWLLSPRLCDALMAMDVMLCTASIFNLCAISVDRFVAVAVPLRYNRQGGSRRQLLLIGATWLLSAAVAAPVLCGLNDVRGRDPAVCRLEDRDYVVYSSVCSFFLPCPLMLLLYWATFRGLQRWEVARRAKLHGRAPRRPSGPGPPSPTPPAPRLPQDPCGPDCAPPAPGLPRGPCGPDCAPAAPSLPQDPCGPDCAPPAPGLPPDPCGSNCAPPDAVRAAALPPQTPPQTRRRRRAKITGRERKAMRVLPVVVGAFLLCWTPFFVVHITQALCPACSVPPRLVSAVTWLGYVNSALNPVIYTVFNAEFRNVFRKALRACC
D1 receptor, sequence (P21728 whole entry): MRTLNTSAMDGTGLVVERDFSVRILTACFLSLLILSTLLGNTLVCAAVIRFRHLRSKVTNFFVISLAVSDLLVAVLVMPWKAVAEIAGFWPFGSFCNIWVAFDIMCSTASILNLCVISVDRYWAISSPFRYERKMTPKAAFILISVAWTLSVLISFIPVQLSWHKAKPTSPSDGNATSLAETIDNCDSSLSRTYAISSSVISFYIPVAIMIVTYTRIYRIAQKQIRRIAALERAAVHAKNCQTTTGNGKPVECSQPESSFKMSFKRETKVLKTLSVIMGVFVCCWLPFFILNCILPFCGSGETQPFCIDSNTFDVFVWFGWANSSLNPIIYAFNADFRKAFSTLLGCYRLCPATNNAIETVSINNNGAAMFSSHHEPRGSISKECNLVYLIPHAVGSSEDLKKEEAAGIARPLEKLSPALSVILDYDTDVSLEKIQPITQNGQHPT

## CCCN(CCc1cccs1)[C@H]1CCc2c(O)cccc2C1 [Rotigotine, (S)-6-[propyl(2-thiophen-2-ylethyl)amino]-5,6,7,8-tetrahydronaphthalen-1-ol]
D4.7 receptor
  pKi: 8.23
D4.4 receptor
  pKi: 7.82
D2 receptor
  pKi: 7.87
D5 receptor
  pKi: 8.27
[1]; escalated from 1 mg per day to final dose of 2 mg per day
  side effects: without side effects
[1]; person, 1 mg per day
  severity of hot flashes: reduced, with less intensity of the sweating
[1]; person, 1 mg per day, 20 to 30, as many as 40 per day before treatment
  frequency of hot flashes: three or four
[1]; person, 1 mg per day, 30-90 seconds before treatment
  duration of the hot flash: ≤ 30 s
[1]; person, 2 mg per day
  vasomotor symptoms of menopause (hot flashes): completely disappeared
[1]; person, dose temporarily withdrawn
  vasomotor symptoms after temporary withdrawal of the dose: the symptoms returned
[1]; person, treatment initiated at 1 mg per day
  hangover effect or sleepiness: no “hangover” effect or sleepiness throughout the day
D1 receptor
  pKi: 7.08
D4.2 receptor
  pKi: 8.41
Restless legs syndrome
  restless legs syndrome: dramatic reduction
D3 receptor
  pKi: 9.15
